In patent publication US5846720A, “Methods of determining chemicals that modulate expression of genes associated with cardiovascular disease” (Oncogene Science, Inc., priority 1996, dated 1998):
Like-named read-outs stand apart in the source and are kept apart here.

Legend:
[1] = test system: G-CSF promoter; experiment: G-CSF promoter/luciferase reporter assay (high-throughput screen I), G21 cells; conditions: for scored as positive in repeat assays (G-CSF): 48 independent luciferase assays, same day; for GCSF fold induction relative to solvent control: transcriptional activators; for GCSF fold induction relative to solvent control / GCSF fold inhibition relative to solvent control: Table 2, 6 h incubation; for GCSF fold inhibition relative to solvent control: transcriptional inhibitors
[2] = test system: MMTV promoter; experiment: MMTV promoter/luciferase reporter assay (high-throughput screen I, control for specificity), M10 cells; format: cell-based, mouse; conditions: for MMTV fold induction relative to solvent control: transcriptional activators, original high-throughput assay
Experimental: pMluci and pSV2Neo, an antibiotic resistance plasmid (84), were co-transfected into NIH/3T3 mouse fibroblast cells using the calcium phosphate precipitation method (85) with a commercially available kit (Pharmacia, Piscataway N.J.). Two days later, cells were transferred to media containing 0.4 mg/ml G418 and were grown for an additional 10-14 days. G418-resistant clones were isolated by standard methods. Once sufficient cell numbers were obtained, clones were analyzed based on several criteria: constitutive luciferase production, induction of luciferase expression by dexamethasone ([…], Sigma, St. Louis, Mo.), satisfactory attachment to microtiter plates used in the high-throughput screen (see section G) and acceptable standard deviation in multiple luciferase expression assays (see below for assay protocol). This analysis was carried out using the luciferase assay conditions described above. Of the clones which satisfied the above criteria for the high throughput screen, one clone, M10, was selected for use.

[3] = test system: hGH promoter; experiment: hGH promoter/luciferase reporter assay (high-throughput screen I), 532 cells; format: cell-based, rat; conditions: for hGH fold induction relative to solvent control: transcriptional activators
Excerpt: 6. a GC rat pituitary cell line, transfected with the growth hormone reporter plasmid, designated 532, deposited under ATCC Accession No. CRL 10663.

[4] = Table 2, 6 h incubation, 360 min
[5] = transcriptional inhibitors, Table 2, 6 h incubation

Row | SMILES | hGH fold induction relative to solvent control ([3]; Table 2, 6 h incubation) | MMTV fold induction relative to solvent control ([2]; Table 2, 6 h incubation) | GCSF fold induction relative to solvent control [1] | hGH fold inhibition relative to solvent control [3, 5] | MMTV fold inhibition relative to solvent control [2, 5] | GCSF fold inhibition relative to solvent control [1] | also measured
1 | CC(=O)n1ccnc1 [#58] |  |  |  |  |  |  | scored as positive in repeat assays (G-CSF) [1]: scored as positives in every single one of these assays
2 | CN(C)c1ccc2cc3ccc(N(C)C)cc3nc2c1 [#80] |  |  |  |  |  |  | activation of the G-CSF promoter (dose response) ([1]; G21 cells): specifically activated the G-CSF promoter; EC50 ([1]; read-out: ED50 (concentration of chemical resulting in 50% maximal stimulation), G-CSF reporter cell line G21, range over the three chemicals): 5 to 70 µM
3 | c1ccc(-c2cccc(-c3ccccn3)n2)nc1 [#453] |  |  |  |  |  |  | effect of replacing DMSO by methanol on MMTV activation ([2]; chemical dissolved in methanol): did not affect its ability to activate the MMTV promoter; MMTV fold induction relative to solvent control [2, 4]: 13.3 fold
4 | CC(=O)N(C)c1ccc(N)cc1 [#1374] |  |  |  |  |  |  | scored as positive in repeat assays (G-CSF) [1]: scored as positives in every single one of these assays
5 | O=NN(O)c1ccccc1 [#1783] |  |  |  |  |  |  | scored as positive in repeat assays (G-CSF) [1]: scored as positive only in half of the 48 repeat assays
6 | CC(=O)c1c(C)cc(NC(C)(C)C)nc1NC(C)(C)C [Chemical 40] | 0.62 fold | 0.27 fold | 5.62 fold |  |  |  | 
7 | CC(=O)c1ccc[nH]1 [Chemical 70] | 9.26 fold | 0.85 fold | 0.43 fold |  |  |  | 
8 | CN(C)c1ccc2cc3ccc(N(C)C)cc3nc2c1 [Chemical 80] | 0.66 fold | 0.83 fold | 5.87 fold |  |  |  | 
9 | CN(C)c1ccc(C(=N)c2ccc(N(C)C)cc2)cc1 [Chemical 183] |  |  |  | 4.00 fold | 0.70 fold | 0.72 fold | 
10 | O=C(c1ccccc1)c1ccncc1 [Chemical 209] |  |  |  | 1.08 fold | 0.81 fold | 6.66 fold | 
11 | CCOC(=O)N1C(=O)c2ccccc2C1=O [Chemical 237] | 0.06 fold | 0.62 fold | 4.77 fold |  |  |  | 
12 | Cc1c(C(=O)O)c(O)cc2c1C(=O)c1c(O)c([C@@H]3O[C@H](CO)[C@@H](O)[C@H](O)[C@H]3O)c(O)c(O)c1C2=O [Chemical 240] |  |  |  | 5.26 fold | 0.80 fold | 0.63 fold | 
13 | ClCCN1CCCCC1 [Chemical 254] | 0.90 fold | 0.98 fold | 4.09 fold |  |  |  | 
14 | NC(=O)N1c2ccccc2CCc2ccccc21 [Chemical 299] | 5.46 fold | 0.47 fold | 0.53 fold |  |  |  | 
15 | CCn1c(=O)[nH]c2ccccc21 [Chemical 322] | 11.18 fold | 1.12 fold | 0.60 fold |  |  |  | 
16 | O=c1c(O)c(-c2ccc(O)c(O)c2)oc2cc(O)ccc12 [Chemical 325] | 5.42 fold | 1.0 fold | 0.14 fold |  |  |  | 
17 | Nc1nc(N)nc(N)n1 [Chemical 364] | 1.18 fold | 1.07 fold | 3.67 fold |  |  |  | 

Row | SMILES | hGH fold induction relative to solvent control ([3]; Table 2, 6 h incubation) | MMTV fold induction relative to solvent control ([2]; Table 2, 6 h incubation) | GCSF fold induction relative to solvent control [1] | hGH fold inhibition relative to solvent control [3, 5] | MMTV fold inhibition relative to solvent control [2, 5] | GCSF fold inhibition relative to solvent control [1] | also measured
18 | O=c1c(O)c(-c2ccc(O)cc2O)oc2cc(O)cc(O)c12 [Chemical 371] |  |  |  | 0.41 fold | 0.89 fold | 11.11 fold | 
19 | O=C(O)c1ccc2c3c(ncnc13)-c1ccccc1C2=O [Chemical 378] | 0.26 fold | 0.59 fold | 4.12 fold |  |  |  | 
20 | CCN(CC)CCCC(C)Nc1c2ccc(Cl)cc2nc2ccc(OC)cc12 (stereo not drawn) [Chemical 423] | 0.56 fold | 0.64 fold | 2.39 fold |  |  |  | 
21 | O=c1ccc2[n+]([O-])c3ccc(O)cc3oc-2c1 [Chemical 427] | 0.43 fold | 0.71 fold | 3.14 fold |  |  |  | 
22 | Cc1cc(C)nc(NS(=O)(=O)c2ccc(N)cc2)n1 [Chemical 443] |  |  |  | 4.76 fold | 0.79 fold | 0.60 fold | 
23 | c1ccc(-c2cccc(-c3ccccn3)n2)nc1 [Chemical 453] | 0.58 fold |  | 0.79 fold |  |  |  | MMTV fold induction relative to solvent control [2, 4]: 13.30 fold
24 | c1ncncn1 [Chemical 473] | 0.50 fold | 0.87 fold | > 3 fold |  |  |  | 
25 | O=S(=O)(O)c1ccc2c(N=Nc3ccc(S(=O)(=O)O)c4ccccc34)c(O)c(S(=O)(=O)O)cc2c1 [Chemical 512] |  |  |  | 5.26 fold | 0.68 fold | 0.81 fold | 
26 | CC(C=O)=CC=CC(C)=CC=CC=C(C)C=CC=C(C)C=CC1=C(C)CCCC1(C)C [Chemical 519] | 0.68 fold | 2.76 fold | 1.15 fold |  |  |  | 
27 | O=P(O)(O)Oc1c[nH]c2ccc(Br)c(Cl)c12 [Chemical 541] |  |  |  | 6.25 fold | 0.86 fold | 0.90 fold | 
28 | CON(C)C(=O)Nc1ccc(Cl)cc1 [Chemical 552] | 5.31 fold | 0.86 fold | 0.81 fold |  |  |  | 
29 | CC1=CC(=C(c2cc(C)c(O)c(C(=O)O)c2)c2c(Cl)ccc(S(=O)(=O)O)c2Cl)C=C(C(=O)O)C1=O [Chemical 556] |  |  |  | 33.33 fold | 0.87 fold | 0.73 fold | 
30 | CC(=O)NCCCC[C@H](NC(C)=O)C(=O)O [Chemical 577] |  |  |  | 4.00 fold | 0.68 fold | 0.64 fold | 
31 | O=C(O[C@H](C(=O)O)[C@H](OC(=O)c1ccccc1)C(=O)O)c1ccccc1 [Chemical 578] |  |  |  | 4.00 fold | 0.91 fold | 0.65 fold | 
32 | COc1ccc(CC(=O)O)cc1OC [Chemical 629] | 1.05 fold | 2.48 fold | 0.85 fold |  |  |  | 
33 | O=C(O)CC1NC(=O)NC1=O (stereo not drawn) [Chemical 630] |  |  |  | 3.57 fold | 0.74 fold | 0.70 fold | 
34 | C[C@]12C=CC(=O)C=C1CC[C@@H]1[C@@H]2[C@@H](O)C[C@@]2(C)[C@H]1CC[C@]2(O)C(=O)CO [Chemical 764] |  |  |  |  |  |  | hGH fold inhibition relative to solvent control [3]: 4.54; MMTV fold inhibition relative to solvent control [2]: 0.59
